# Data: patent US7348305B2, “Inhibitor of cardiac tachyarrhythmias” (Department of Veterans Affairs, Rehabilitation, priority 2003, dated 2008)
# Entries after “also recorded” stand apart in the source; their conditions may differ.
# What was measured:
# Assay type in all cases: in vivo, dog
# [1] = system: ventricular tachyarrhythmias following LAD coronary artery ligation; test: Model 1: two-stage LAD coronary artery ligation, Holter EKG monitoring 2-24 hr (ventricular triplets, sustained VT/VF, death)
# Method: The two-stage ligation procedure results in a very low incidence of ventricular fibrillation (<5-10%) during the initial 6 hours following coronary artery occlusion (Harris et al., 1951). Almost all ventricular fibrillation occurs during the initial 30 minutes with a high proportion of successful defibrillation. Ambulatory EKG monitoring is performed over the 2-24 hr period following coronary artery ligation. During the 6-24 hr period, a 25-40% incidence of rapid monomorphic ventricular tachycardia (385±15/min) leading to ventricular fibrillation is observed at 13.3±0.8 hours post-LAD ligation (FIG. 1), with a mean duration of monomorphic ventricular tachycardia preceding ventricular fibrillation of 66±7 sec. When provocative ventricular pacing is performed at 24 hours, however, the reentrant substrate supporting sustained ventricular tachycardia is present in more than 80% of the surviving dogs with no difference in rate between spontaneous and pacing-induced sustained monomorphic ventricular tachycardias (FIG. 3).
# In the 24-hr Infarct (Model 1) Studies, each control and etanercept pretreated animal was monitored for ventricular arrhythmias using a Holter 2-lead recording for the duration of time following LAD ligation. […] In the saline control group, 4 animals died at 11-24 hours post ligation. […]
# Model 1: Electrophysiologic correlates of myocardial infarction over a 24-hr period. Eighteen 15-22 kg male mongrel dogs were anesthetized with IV sodium pentobarbital (30 mg/kg). A cuffed endotracheal tube was inserted and the animals were ventilated with room air using a volume-cycled respirator. […] The dogs were extubated and allowed to awaken in a temperature-controlled, humidified small animal post-operative recovery unit. They were given nalbuphine 0.2 mg/kg for post-operative analgesia. During the 2-24 hr period following LAD ligation, Holter monitoring was performed and the two-lead EKG was recorded on magnetic tape. Dogs were re-anesthetized with sodium pentobarbital at 24-hr. The thoracotomy was reopened and the heart was removed and perfused with ice-cold Tyrode's buffer via the left main coronary artery. The outer 0.5-1.5 mm EBZ tissue overlying the infarct was shaved and a longitudinal sample of tissue from the LAD region was stained with triphenyltetrazolium chloride (0.1%) to determine viability of the EBZ. Triphenyltetrazolium (TTZ) forms a brick-red precipitate in the presence of active intracellular dehydrogenases, delineating vital tissue. Non-viable tissues are not stained and remain a pale color. […] Tissue samples from the RS, the EBZ and the infarct tissue were dissected rapidly on an ice-cold surface, placed in freezer vials, and frozen in liquid nitrogen. These samples were then stored at −70° C. for later assay.
# EKG Analysis: Full disclosure EKG records were obtained at 10 mm/sec for the entire 2-24 hour post-occlusion period. All measurements and calculations were made by direct visual observation and manual counting.
# (§1) Anti-TNFα Treatment: A dosage of 2 mg/kg hTNFR:Fc (supplied as etanercept, Amgen, Inc, Thousand Oaks, Calif.) or saline were injected IV into a forepaw vein at 24-hr and again 1-hr prior to LAD ligation. […] This dosage was used after consultation with the pharmaceutical corporate pharmacology section and based on unpublished internal data that this dosage would provide maximal sequestration of tissue and circulating TNFα.
# [2] = system: β-adrenergic receptor kinase (βARK); test: βARK immunoblot of EBZ tissue 24 hr after LAD ligation (Model 1); conditions: 24 hr after LAD ligation
# Method: βARK immunoblots were used to estimate βARK expression (Yu et al., 2000).
# Western Blot Analysis: Assessment of βARK content was conducted using standard SDS-PAGE and immunoblot techniques. Samples containing 100 μg of protein from myocardial extracts were electrophoresed using 10% SDS-PAGE and transferred to nitrocellulose membranes. The membrane was incubated with monoclonal anti-βARK (Upstate Biotechnology, Inc, Lake Placid, N.Y.), followed by exposure to peroxidase-linked anti-mouse IgG. Antibody binding was detected by a chemiluminescent method (ECL, Amersham Biosciences Corp, Piscataway, N.J.). Quantification of immunoreactive proteins was performed by densitometric scanning and with Image QuaNT software (Molecular Dynamics).
# β-ARK, Proteasome and Ubiquitin Expression Assays: β-ARK, ubiquitinated β-ARK and proteasome in EBZ and RS tissues was determined by Western blot analysis. Samples were adjusted after protein concentration was assayed (BCA, Pierce Chemicals) to provide identical loads. 100 μg protein was combined with equal volume of SDS sample buffer, and electrophoresed on a 10% polyacrylamide gel. The blocked membranes were incubated with mouse anti β-ARK monoclonal antibody (Santa Cruz Biotechnology, Santa Cruz, Calif.) for 1-h at room temperature followed by anti-mouse IgG coupled to horseradish peroxidase and developed using an ECL western blotting kit (Amersham). The bands were scanned, stripped and reprobed with mouse anti-ubiquitin antibody (Santa Cruz Biotechnology, Santa Cruz, Calif.). The membrane was rescanned, stripped a second time and reprobed with rabbit anti-proteasome 20S C2 subunit polyclonal antibody (A.G. Scientific, Inc. CA). A separate control gel was included that was similarly treated, but reprobed with the identical Ab and band quality and density compared to the previous data obtained before stripping. Quantitation of immunoreactive bands was performed by densitometric scanning using ImageQuant software (Molecular Dynamics).
# myocardial infarct = test: Model 2: 2-hr LAD occlusion/4-hr reperfusion, infarct size
# Method: Model 2: Acute changes in infarct size. Seventeen 15-22 kg male mongrel dogs were anesthetized and respired as described above. Body temperature was maintained using a temperature-controlled operative table bed and fluid replacement. Two EKG leads (L-II and V-3) and arterial pressure (left femoral) were continuously monitored during the experiment. […] After 4 hours of reperfusion, the heart was removed and rinsed with room-temperature Tyrode's solution. Cannulae were placed into the proximal aorta and into the LAD artery at the site of occlusion for perfusion with Evans blue (0.1%) and TTZ (0.1%), respectively, at equal pressure (80 mmHg). The area at risk of infarction was delineated by its red color (surviving myocardium) or a pale color (infarct) with the remaining heart stained by Evan's blue. The heart was then sliced to provide a 5 mm thick section parallel to the AV groove. After storage overnight in buffered formalin, infarcted tissue, surviving myocardium within the anatomic area at risk of infarction, and left ventricle outside the area at risk of infarction were separated using a scalpel blade. Infarct mass, area at risk of infarction, left ventricular mass, and total heart mass were determined gravimetrically. Anti-TNFα Treatment: A dosage of 2 mg/kg hTNFR:Fc (supplied as etanercept, Amgen, Inc, Thousand Oaks, Calif.) or saline were injected IV into a forepaw vein at 24-hr and again 1-hr prior to LAD ligation. […] This dosage was used after consultation with the pharmaceutical corporate pharmacology section and based on unpublished internal data that this dosage would provide maximal sequestration of tissue and circulating TNFα.
# [3] = Side effects of IV injection in dogs; conditions: 2 mg/kg IV into a forepaw vein at 24-hr and 1-hr prior to LAD ligation
# Method: as §1
# [4] = etanercept pretreated, 2-hr occlusion/4-hr reperfusion
substance,measurement,setting,value
etanercept,"fastest ventricular triplet rate observed per hour after LAD ligation (FIG. 18, FIG. 32)",[1]; 4 to 24 hr after LAD ligation,significant reduction
same,mortality (dogs died of group),"[1]; 24 hr after LAD ligation, etanercept 2 mg/kg at -24 and -1 hr, bortezomib 0.0875 mg/kg at -1 and +6 hr, anakinra 10 mg/kg at -1 and +12 hr, control 4 of 10, preliminary",0 of 8
same,frequency of very rapid (≧360 bpm) ventricular triplets,"[1]; etanercept 2 mg/kg IV 24 and 1 hr before LAD ligation, 4-24 hr (2 to 24 hr) after ligation, n=8, saline 21±6/hr",6 ± 1 h⁻¹
same,average frequency of total rapid (≧300 bpm) ventricular triplets,"[1]; etanercept 2 mg/kg IV 24 and 1 hr before LAD ligation, n=8, saline 152±32/hr",45 ± 8 h⁻¹
same,very rapid (≧360 bpm) ventricular triplets versus control (FIG. 31B),"[1]; etanercept 2 mg/kg, bortezomib 0.0875 mg/kg",significant descrease; also recorded: significant decrease
same,rapid (>300 bpm) ventricular triplets per hour versus control (FIG. 31A),"[1]; etanercept 2 mg/kg, bortezomib 0.0875 mg/kg, anakinra 10 mg/kg",significant descrease
same,idioventricular heart rate on EKG,"[1]; etanercept-treated dogs versus saline, after LAD ligation (FIG. 16B)",slower idioventricular heart rate
same,development of sustained ventricular tachycardia or fibrillation,"[1]; etanercept-treated dogs, four saline-treated dogs developed it at 11-24 hours post ligation",no etanercept-treated dogs developed sustained ventricular tachycardia or fibrillation
same,βARK in EBZ as percentage of unoperated control tissue,"[2]; etanercept 2 mg/kg pretreated, immunoblot, n=5, saline 4.3%",33.8±7.2%
same,salvage of βARK in EBZ tissue compared to saline control,[2]; etanercept pretreated,8 fold
same,decrease in infarct size (% area at risk) compared to saline,myocardial infarct; [4],61%
same,decrease in infarct size (% left ventricular mass) compared to saline,myocardial infarct; [4],54%
same,"infarct size, % left ventricular mass (LV)","myocardial infarct; etanercept pretreated, 2-hr occlusion/4-hr reperfusion, n=8, saline 13±1",6±1 % LV
same,"infarct size, % area at risk (AR)","myocardial infarct; etanercept pretreated, 2-hr occlusion/4-hr reperfusion, n=8, saline 38±6",15±2 % AR
same,reduction of infarct size expressed as % left ventricular mass or % area at risk,"myocardial infarct; etanercept pretreatment, Model 2, approximate summary",approximately 50%
same,side effects of the injection,[3],No side effects
